From paper PMC3775947 (Clinical lymphoma, myeloma & leukemia, 2013)
Read-outs that look alike come from different tables or passages of the source.

Assays:
[1] = Plasma pharmacokinetics of barasertib, barasertib-hQPA and LDAC; conditions: for Steady-state plasma concentrations observed from, after start of infusion: 7-day continuous iv infusion of barasertib, Day 1, maintained until EOI; for AUC0–EOI, barasertib-hQPA / AUC0–t, barasertib-hQPA / Css, barasertib-hQPA / Css, barasertib: geometric mean (CV%)
patients with AML = conditions: cited from earlier work
[2] = system: elderly patients with newly diagnosed AML; experiment: Phase I dose escalation: dose-limiting toxicities and maximum tolerated dose; assay type: in vivo, human
[3] = system: elderly patients with newly diagnosed AML
[4] = system: elderly patients with newly diagnosed AML; experiment: AML response assessed by investigators; assay type: in vivo, human
[5] = plasma, barasertib 800 mg + LDAC 400 mg, n=6
[6] = plasma, barasertib 1000 mg + LDAC 400 mg, n=13
[7] = plasma, barasertib 1200 mg + LDAC 400 mg, n=3
[8] = Total, barasertib 800-1200 mg + LDAC 400 mg, n=22
[9] = all patients, barasertib + LDAC, n=22
[10] = barasertib 800 mg + LDAC 400 mg, n=6
[11] = barasertib 1000 mg + LDAC 400 mg, n=13
[12] = barasertib 1200 mg + LDAC 400 mg, n=3
[13] = combination treatment barasertib + LDAC
[14] = overall, barasertib + LDAC, n=22

SMILES: CCN(CCO)CCCOc1ccc2c(Nc3cc(CC(=O)Nc4cccc(F)c4)[nH]n3)ncnc2c1 [Barasertib-hQPA, barasertib hydroxy-QPA]
- Steady-state plasma concentrations observed from, after start of infusion [1]: 24 h
- Accumulation ([1]; 28-day cycles): Minimal accumulation
- Barasertib-hQPA exposure (AUC and Css) versus barasertib dose ([1]; 800-1200 mg, trend, low patient numbers): increase more than proportionally
- Clearance rate, geometric mean ([1]; barasertib 1000 mg cohort, range 23.4–43.3): 30.5 L/h
- Volume of distribution at steady state, geometric mean ([1]; barasertib 1000 mg cohort, range 509–1050): 713 L
- Exposure to barasertib-hQPA during the infusion relative to that of barasertib ([1]; during 7-day infusion): approximately four-fold
- Terminal phase t½ ([1]; following EOI, biphasic elimination): 84 to 108 h
- Detected in samples post EOI up to and including ([1]; plasma, LLOQ 0.25 ng/mL): ≤ 336 h
- AUC0–EOI, barasertib-hQPA [1, 5]: 23240 (14.9) ng.h/mL
- AUC0–t, barasertib-hQPA [1, 5]: 24040 (3.4) ng.h/mL
- Css, barasertib-hQPA [1, 5]: 147.3 (13.9) ng/mL
- AUC0–EOI, barasertib-hQPA [1, 6]: 26860 (29.8) ng.h/mL
- AUC0–t, barasertib-hQPA [1, 6]: 32840 (23.1) ng.h/mL
- Css, barasertib-hQPA [1, 6]: 170.2 (27.4) ng/mL
- AUC0–EOI, barasertib-hQPA [1, 7]: 37510 (26.6) ng.h/mL
- AUC0–t, barasertib-hQPA [1, 7]: 41850 (28.2) ng.h/mL
- Css, barasertib-hQPA [1, 7]: 249.2 (21.0) ng/mL

SMILES: CCN(CCCOc1ccc2c(Nc3cc(CC(=O)Nc4cccc(F)c4)n[nH]3)ncnc2c1)CCOP(=O)(O)O [Barasertib]
- Steady-state plasma concentrations observed from, after start of infusion [1]: 24 h
- Time following EOI at which levels were generally undetectable ([1]; plasma, LLOQ 0.25 ng/mL): 2 h
- Css, barasertib [1, 5]: 46.7 (55.8) ng/mL
- Css, barasertib [1, 6]: 44.4 (55.5) ng/mL
- Css, barasertib [1, 7]: 64.9 (67.4) ng/mL
- Incidence of febrile neutropenia (patients with AML; barasertib monotherapy Phase I study): 47%
- Lowest dose associated with clinical activity (patients with AML; barasertib): 400 mg
- Tolerability of dose level ([2]; barasertib 1200 mg + LDAC): non-tolerated
- DLTs reported ([2]; in vivo): No DLTs
- Grade ≥3 febrile neutropenia, patients ([3]; MTD of barasertib 1000 mg + LDAC): 69%
- Alopecia, AE (any cause; all grades) [3, 8]: 6 (27) n (%)
- Anemia, grade ≥3 adverse event [3, 8]: 2 (9) n (%)
- Any AE (any cause; all grades) [3, 8]: 22 (100) n (%)
- Any grade ≥3 AE [3, 8]: 21 (96) n (%)
- Confusional state, AE (any cause; all grades) [3, 8]: 5 (23) n (%)
- Constipation, AE (any cause; all grades) [3, 8]: 6 (27) n (%)
- Cough, AE (any cause; all grades) [3, 8]: 4 (18) n (%)
- Decreased appetite, AE (any cause; all grades) [3, 8]: 4 (18) n (%)
- Diarrhea, AE (any cause; all grades) [3, 8]: 10 (46) n (%)
- Diarrhea, grade ≥3 adverse event [3, 8]: 2 (9) n (%)
- Febrile neutropenia, AE (any cause; all grades) [3, 8]: 13 (59) n (%)
- Febrile neutropenia, grade ≥3 adverse event [3, 8]: 13 (59) n (%)
- Headache, AE (any cause; all grades) [3, 8]: 5 (23) n (%)
- Hemorrhoids, AE (any cause; all grades) [3, 8]: 4 (18) n (%)
- Hypertension, AE (any cause; all grades) [3, 8]: 4 (18) n (%)
- Insomnia, AE (any cause; all grades) [3, 8]: 4 (18) n (%)
- Musculoskeletal pain, AE (any cause; all grades) [3, 8]: 4 (18) n (%)
- Nausea, AE (any cause; all grades) [3, 8]: 11 (50) n (%)
- Neutropenia, AE (any cause; all grades) [3, 8]: 4 (18) n (%)
- Neutropenia, grade ≥3 adverse event [3, 8]: 4 (18) n (%)
- Oropharyngeal pain, AE (any cause; all grades) [3, 8]: 5 (23) n (%)
- Peripheral edema, AE (any cause; all grades) [3, 8]: 9 (41) n (%)
- Petechiae, AE (any cause; all grades) [3, 8]: 6 (27) n (%)
- Pneumonia, AE (any cause; all grades) [3, 8]: 6 (27) n (%)
- Pneumonia, grade ≥3 adverse event [3, 8]: 3 (14) n (%)
- Pyrexia, AE (any cause; all grades) [3, 8]: 5 (23) n (%)
- Rash, AE (any cause; all grades) [3, 8]: 4 (18) n (%)
- Stomatitis, AE (any cause; all grades) [3, 8]: 9 (41) n (%)
- Peripheral edema, patients [3, 9]: 41%
- Stomatitis, patients [3, 9]: 41%
- Alopecia, AE (any cause; all grades) [3, 10]: 2 n
- Anemia, grade ≥3 adverse event [3, 10]: 2 n
- Any AE (any cause; all grades) [3, 10]: 6 n
- Any grade ≥3 AE [3, 10]: 6 n
- Confusional state, AE (any cause; all grades) [3, 10]: 2 n
- Constipation, AE (any cause; all grades) [3, 10]: 3 n
- Cough, AE (any cause; all grades) [3, 10]: 1 n
- Decreased appetite, AE (any cause; all grades) [3, 10]: 2 n
- Diarrhea, AE (any cause; all grades) [3, 10]: 5 n
- Diarrhea, grade ≥3 adverse event [3, 10]: 1 n
- Febrile neutropenia, AE (any cause; all grades) [3, 10]: 4 n
- Febrile neutropenia, grade ≥3 adverse event [3, 10]: 4 n
- Headache, AE (any cause; all grades) [3, 10]: 3 n
- Hemorrhoids, AE (any cause; all grades) [3, 10]: 1 n
- Hypertension, AE (any cause; all grades) [3, 10]: 0 n
- Insomnia, AE (any cause; all grades) [3, 10]: 0 n
- Musculoskeletal pain, AE (any cause; all grades) [3, 10]: 2 n
- Nausea, AE (any cause; all grades) [3, 10]: 4 n
- Neutropenia, AE (any cause; all grades) [3, 10]: 1 n
- Neutropenia, grade ≥3 adverse event [3, 10]: 1 n
- Oropharyngeal pain, AE (any cause; all grades) [3, 10]: 1 n
- Peripheral edema, AE (any cause; all grades) [3, 10]: 2 n
- Petechiae, AE (any cause; all grades) [3, 10]: 3 n
- Pneumonia, AE (any cause; all grades) [3, 10]: 3 n
- Pneumonia, grade ≥3 adverse event [3, 10]: 0 n
- Pyrexia, AE (any cause; all grades) [3, 10]: 3 n
- Rash, AE (any cause; all grades) [3, 10]: 2 n
- Stomatitis, AE (any cause; all grades) [3, 10]: 3 n
- Stomatitis, grade ≥3 adverse event [3, 10]: 0 n
- Thrombocytopenia, grade ≥3 adverse event (grade 4) [3, 10]: 1 n
- Vomiting, AE (any cause; all grades) [3, 10]: 3 n
- Alopecia, AE (any cause; all grades) [3, 11]: 4 n
- Anemia, grade ≥3 adverse event [3, 11]: 0 n
- Any AE (any cause; all grades) [3, 11]: 13 n
- Any grade ≥3 AE [3, 11]: 12 n
- Confusional state, AE (any cause; all grades) [3, 11]: 3 n
- Constipation, AE (any cause; all grades) [3, 11]: 3 n
- Cough, AE (any cause; all grades) [3, 11]: 3 n
- Decreased appetite, AE (any cause; all grades) [3, 11]: 1 n
- Diarrhea, AE (any cause; all grades) [3, 11]: 5 n
- Diarrhea, grade ≥3 adverse event [3, 11]: 1 n
- Febrile neutropenia, AE (any cause; all grades) [3, 11]: 9 n
- Febrile neutropenia, grade ≥3 adverse event [3, 11]: 9 n
- Headache, AE (any cause; all grades) [3, 11]: 2 n
- Hemorrhoids, AE (any cause; all grades) [3, 11]: 3 n
- Hypertension, AE (any cause; all grades) [3, 11]: 3 n
- Insomnia, AE (any cause; all grades) [3, 11]: 3 n
- Musculoskeletal pain, AE (any cause; all grades) [3, 11]: 2 n
- Nausea, AE (any cause; all grades) [3, 11]: 6 n
- Neutropenia, AE (any cause; all grades) [3, 11]: 2 n
- Neutropenia, grade ≥3 adverse event [3, 11]: 2 n
- Oropharyngeal pain, AE (any cause; all grades) [3, 11]: 4 n
- Peripheral edema, AE (any cause; all grades) [3, 11]: 7 n
- Petechiae, AE (any cause; all grades) [3, 11]: 2 n
- Pneumonia, AE (any cause; all grades) [3, 11]: 3 n
- Pneumonia, grade ≥3 adverse event [3, 11]: 3 n
- Pyrexia, AE (any cause; all grades) [3, 11]: 2 n
- Rash, AE (any cause; all grades) [3, 11]: 2 n
- Stomatitis, AE (any cause; all grades) [3, 11]: 4 n
- Stomatitis, grade ≥3 adverse event [3, 11]: 2 n
- Thrombocytopenia, grade ≥3 adverse event (grade 4) [3, 11]: 1 n
- Vomiting, AE (any cause; all grades) [3, 11]: 2 n
- Alopecia, AE (any cause; all grades) [3, 12]: 0 n
- Anemia, grade ≥3 adverse event [3, 12]: 0 n
- Any AE (any cause; all grades) [3, 12]: 3 n
- Any grade ≥3 AE [3, 12]: 3 n
- Confusional state, AE (any cause; all grades) [3, 12]: 0 n
- Constipation, AE (any cause; all grades) [3, 12]: 0 n
- Cough, AE (any cause; all grades) [3, 12]: 0 n
- Decreased appetite, AE (any cause; all grades) [3, 12]: 1 n
- Diarrhea, AE (any cause; all grades) [3, 12]: 0 n
- Diarrhea, grade ≥3 adverse event [3, 12]: 0 n
- Febrile neutropenia, AE (any cause; all grades) [3, 12]: 0 n
- Febrile neutropenia, grade ≥3 adverse event [3, 12]: 0 n
- Headache, AE (any cause; all grades) [3, 12]: 0 n
- Hemorrhoids, AE (any cause; all grades) [3, 12]: 0 n
- Hypertension, AE (any cause; all grades) [3, 12]: 1 n
- Insomnia, AE (any cause; all grades) [3, 12]: 1 n
- Musculoskeletal pain, AE (any cause; all grades) [3, 12]: 0 n
- Nausea, AE (any cause; all grades) [3, 12]: 1 n
- Neutropenia, AE (any cause; all grades) [3, 12]: 1 n
- Neutropenia, grade ≥3 adverse event [3, 12]: 1 n
- Oropharyngeal pain, AE (any cause; all grades) [3, 12]: 0 n
- Peripheral edema, AE (any cause; all grades) [3, 12]: 0 n
- Petechiae, AE (any cause; all grades) [3, 12]: 1 n
- Pneumonia, AE (any cause; all grades) [3, 12]: 0 n
- Pneumonia, grade ≥3 adverse event [3, 12]: 0 n
- Pyrexia, AE (any cause; all grades) [3, 12]: 0 n
- Rash, AE (any cause; all grades) [3, 12]: 0 n
- Stomatitis, AE (any cause; all grades) [3, 12]: 2 n
- Stomatitis, grade ≥3 adverse event [3, 12]: 2 n
- Thrombocytopenia, grade ≥3 adverse event (grade 4) [3, 12]: 0 n
- Vomiting, AE (any cause; all grades) [3, 12]: 1 n
- ECG assessment [3, 13]: no clinically significant changes
- Vital signs, hematology, or clinical chemistry parameters [3, 13]: no clinically relevant adverse changes
- Dose interruptions due to AEs [3, 14]: Three
- Grade ≥3 febrile neutropenia, patients [3, 14]: 59%
- SAE febrile neutropenia [3, 14]: 36%
- SAE stomatitis [3, 14]: 9%
- SAEs considered related to study treatment [3, 14]: Five
- Serious AEs (SAEs), patients [3, 14]: 68%
- Overall response rate (International Working Group criteria; by investigator opinion) ([4]; all patients, barasertib + LDAC, n=10/22): 45%
- Complete response with incomplete recovery of neutrophils and/or platelets, patients [4, 9]: 9%
- Partial response, patients [4, 9]: 9%
- Best clinical response: CR (complete response) [4, 10]: 2 n
- Best clinical response: CRi (complete response with incomplete recovery of neutrophils and/or platelets) [4, 10]: 0 n
- Best clinical response: ORR (overall response rate) [4, 10]: 3 (50) n (%)
- Best clinical response: PR (partial response) [4, 10]: 1 n
- Best clinical response: CR (complete response) [4, 11]: 3 n
- Best clinical response: CRi (complete response with incomplete recovery of neutrophils and/or platelets) [4, 11]: 2 n
- Best clinical response: ORR (overall response rate) [4, 11]: 6 (46) n (%)
- Best clinical response: PR (partial response) [4, 11]: 1 n
- Response rate ([4]; barasertib 1000 mg cohort + LDAC, 6/13 patients): 46%
- Best clinical response: CR (complete response) [4, 12]: 1 n
- Best clinical response: CRi (complete response with incomplete recovery of neutrophils and/or platelets) [4, 12]: 0 n
- Best clinical response: ORR (overall response rate) [4, 12]: 1 (33) n (%)
- Best clinical response: PR (partial response) [4, 12]: 0 n
- Complete response, patients with adverse cytogenetic risk ([4]; barasertib + LDAC, n=7): 14%
- Complete responses (CR or CRi), patients with intermediate risk cytogenetics ([4]; barasertib + LDAC, n=9): 44%
